Assay results published in patent US11351173B2, “Substituted pyrrolo[1,2-a]pyrimidines and their use in the treatment of medical disorders” (Bial—R&D Investments, S.A., priority 2014, dated 2022).
Converted amounts (≈) assume the structure as drawn.

Experiments:
[1] = target: T1, glucocerebrosidase (Gcase) (Homo sapiens, UniProt P04062); test: Glucocerebrosidase (Gcase) activation assay, 4-methylumbelliferyl-beta-D-glucopyranoside substrate, fluorescence readout; type: biochemical; settings: for activation at 0.1 µM / Percent Gcase Activation, 0.1 μM Test Compound: test compound at 0.1 μM; for activation at 0.1 µM: read-out: Percent Gcase Activation, 0.1 μM Test Compound; for activation at 1 µM / Percent Gcase Activation, 1 μM Test Compound: test compound at 1.0 μM; for activation at 1 µM: read-out: Percent Gcase Activation, 1 μM Test Compound
T1 construct: micellar solution containing 10 nM GCase and 100 nM saposin C
T1 sequence (P04062 40-536): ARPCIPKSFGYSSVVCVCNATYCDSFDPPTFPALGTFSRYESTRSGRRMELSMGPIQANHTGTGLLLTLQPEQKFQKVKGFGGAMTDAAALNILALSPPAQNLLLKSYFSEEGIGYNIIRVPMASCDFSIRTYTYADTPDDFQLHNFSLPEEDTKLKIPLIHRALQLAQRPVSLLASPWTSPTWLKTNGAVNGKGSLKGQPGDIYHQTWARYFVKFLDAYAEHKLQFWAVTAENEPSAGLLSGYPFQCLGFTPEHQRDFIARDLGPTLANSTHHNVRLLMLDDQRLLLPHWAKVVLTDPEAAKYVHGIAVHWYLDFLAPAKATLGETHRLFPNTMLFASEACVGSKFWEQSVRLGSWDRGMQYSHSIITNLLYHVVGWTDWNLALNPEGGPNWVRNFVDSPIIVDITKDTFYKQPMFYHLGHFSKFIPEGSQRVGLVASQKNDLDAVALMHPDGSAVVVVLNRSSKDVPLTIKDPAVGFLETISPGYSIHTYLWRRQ
Protocol: The ability of exemplary compounds to activate glucocerebrosidase (Gcase) was measured.
A 484 μL aliquot of a 1.0 mg/mL solution of phosphatidylserine (PS) (Sigma P7769) in chloroform was evaporated under a stream of nitrogen for 1 hour. The lipid film was dissolved over 4 minutes of vigorous vortexing in 40 mL of 176 mM K2HPO4/50 mM citric acid (pH 4.7) containing 7.5 μL of triton X-100, resulting in a mixed micellar preparation with a composition of 0.32 mM triton and 0.37 mol % PS. 4-Methylumbelliferyl-beta-D-glucopyranoside (ACROS-337025000) was dissolved in the micellar solution to a final concentration of 2 mM for use as the reaction substrate.
Test compounds were diluted to the desired concentrations with dimethylsulfoxide (DMSO) from 10 mM stocks, and 0.41 μL of the DMSO compound mixture was added to 100 μL of micellar solution containing 10 nM GCase and 100 nM saposin C (Enzo ALX-201-262-C050). Pre-incubation was allowed to occur for 30 minutes at room temperature, after which the reaction was initiated by combining 25 μL of substrate solution with 25 μL of compound/GCase/saposin mixture. The reaction proceeded for 15 minutes at room temperature and was stopped by adding 150 μL of 1M glycine, pH 12.5. The endpoint of the reaction was monitored by measuring fluorescence intensity (excitation: 365 nm; emission: 440 nm) on a SpectraMax i3 instrument (Molecular Devices). Test compounds were screened at 1.0 and 0.1 μM final concentration, and subsequent 8-point dose response curves were obtained using 3-fold dilutions from a maximum final concentration of 5 μM.

[2] = Compound solubility in water; settings: water; for solubility: Compound Solubility in Water

| Structure (SMILES) | activation at 0.1 µM [1] [%] | activation at 1 µM [1] [%] | solubility [2] [µg/mL] | solubility ([2]; in water) [µg/mL] | Percent Gcase Activation, 0.1 μM Test Compound [1] | Percent Gcase Activation, 1 μM Test Compound [1] | Compound Solubility in Water [2] [µg/mL] |
| --- | --- | --- | --- | --- | --- | --- | --- |
| Cc1cc(C)n2ccc(C(=O)Nc3ccc(C)c(-c4ncco4)c3)c2n1 [III-14] | – | – | – | – | *** (greater than 20% Gcase activation) | +++ (Gcase activation greater than 60%) | <1.5 |
| Cc1cc(Cl)nc2c(C(=O)N[C@H]3CC[C@H](OCC(C)C)CC3)ccn12 [III-73] | > 20 | > 60 | 2 (≈ 5.5 µM) | – | – | – | – |
| CO[C@H]1CC[C@H](C(C)(C)NC(=O)c2ccn3c(C)cc(C)nc23)CC1 [III-236] | 10 to 20 | > 60 | – | 9.9 (≈ 28.8 µM) | – | – | – |
| Cc1cc(C)n2ccc(C(=O)N[C@H]3CC[C@H](OC(C)C)CC3)c2n1 [III-106] | 10 to 20 | > 60 | 10.4 (≈ 31.6 µM) | – | – | – | – |
| Cc1cc(C)n2ccc(C(=O)NC3CCc4ccc(-c5cocn5)cc43)c2n1 (centres unmarked) [III-130] | – | > 60 | 0.5 (≈ 1.34 µM) | – | – | – | – |
| CCCOCCO[C@H]1CC[C@H](NC(=O)c2ccn3c(C)cc(C)nc23)CC1 [III-197] | < 10 | 30 to 60 | 16.9 (≈ 45.2 µM) | – | – | – | – |
| Cc1cc(C)n2ccc(C(=O)NC3(C)CCOc4ccc(F)c(F)c43)c2n1 (centres unmarked) [III-173] | 10 to 20 | > 60 | 0.06 (≈ 0.162 µM) | – | – | – | – |
| CCCCCO[C@H]1CC[C@H](NC(=O)c2ccn3c(C)ccnc23)CC1 [III-260] | 10 to 20 | > 60 | – | 17.7 (≈ 51.5 µM) | – | – | – |
| Cc1cc(C(F)(F)F)nc2c(C(=O)Nc3ccc(-c4cocn4)cc3)ccn12 [III-252] | 10 to 20 | > 60 | – | 1.8 (≈ 4.66 µM) | – | – | – |
| Cc1cc(C)n2ccc(C(=O)Nc3ccc(-n4ccnc4)cc3)c2n1 [III-86] | < 10 | < 30 | 0.3 (≈ 0.905 µM) | – | – | – | – |
| [2H]C1(NC(=O)c2ccn3c(C(C)C)cc(COC)nc23)CCOc2cc(F)c(F)cc21 (centres unmarked) [III-60] | < 10 | 30 to 60 | 2.4 (≈ 5.76 µM) | – | – | – | – |
| [2H]C1(NC(=O)c2ccn3c(C)cc(NC(C)=O)nc23)CCOc2ccccc21 (centres unmarked) [III-163] | < 10 | < 30 | 2.5 (≈ 6.84 µM) | – | – | – | – |
| Cc1cc(C)n2ccc(C(=O)NC3CC=C(c4cccs4)CC3)c2n1 (centres unmarked) [III-186] | > 20 | > 60 | 0.2 (≈ 0.569 µM) | – | – | – | – |
| Cc1cc(C)n2ccc(C(=O)NC3CCC(c4cccs4)CC3)c2n1 (centres unmarked) [III-188] | – | – | – | – | *** (greater than 20% Gcase activation) | +++ (Gcase activation greater than 60%) | 1.0 |
| COc1cc(NC(=O)c2ccn3c(C)cc(C)nc23)ccc1-c1cocn1 [III-108] | > 20 | > 60 | 0.2 (≈ 0.552 µM) | – | – | – | – |
| Cc1cc(C)n2ccc(C(=O)NC3CCC(c4ncco4)CC3)c2n1 (centres unmarked) [III-245] | < 10 | < 30 | – | 27.7 (≈ 81.9 µM) | – | – | – |
| Cc1cc(C)n2ccc(C(=O)Nc3cnc(-c4ncccn4)c(Cl)c3)c2n1 [III-223] | < 10 | < 30 | – | 3.2 (≈ 8.45 µM) | – | – | – |
| Cc1cc(C)n2ccc(C(=O)NC3(C)CCOc4cc(F)c(F)cc43)c2n1 (centres unmarked) [III-174] | > 20 | > 60 | 3.8 (≈ 10.2 µM) | – | – | – | – |
| Cc1cc(C)n2ccc(C(=O)NC3Cc4ccccc4C3)c2n1 [III-215] | 10 to 20 | > 60 | – | 0.3 (≈ 0.982 µM) | – | – | – |
| COc1cc(-c2cnco2)ccc1NC(=O)c1ccn2c(C)cc(C)nc12 [III-110] | > 20 | > 60 | 0.4 (≈ 1.1 µM) | – | – | – | – |
| COCc1cc(C)n2ccc(C(=O)N[C@H]3CCCc4ccccc43)c2n1 [III-42] | > 20 | > 60 | 0.4 (≈ 1.14 µM) | – | – | – | – |

Further lines, results first:

| activation at 0.1 µM [1] [%] | activation at 1 µM [1] [%] | solubility [2] [µg/mL] | solubility ([2]; in water) [µg/mL] | Percent Gcase Activation, 0.1 μM Test Compound [1] | Percent Gcase Activation, 1 μM Test Compound [1] | Compound Solubility in Water [2] [µg/mL] | Structure (SMILES) |
| --- | --- | --- | --- | --- | --- | --- | --- |
| 10 to 20 | > 60 | 13.9 (≈ 35.5 µM) | – | – | – | – | C#Cc1ccc(C(C)(C)NC(=O)c2ccn3c(COC)cc(COC)nc23)cc1 [III-156] |
| > 20 | > 60 | – | 1.5 (≈ 4.2 µM) | – | – | – | CCCCCOC1CCCC(NC(=O)c2ccn3c(C)cc(C)nc23)C1 (centres unmarked) [III-234] |
| > 20 | > 60 | 1.8 (≈ 5.37 µM) | – | – | – | – | Cc1cc(C)n2ccc(C(=O)NC3(C)CCOc4ccccc43)c2n1 (centres unmarked) [III-181] |
| > 20 | > 60 | – | 3.6 (≈ 10.1 µM) | – | – | – | CCCCCO[C@H]1CC[C@@H](NC(=O)c2ccn3c(C)cc(C)nc23)CC1 [III-202] |
| > 20 | > 60 | 3.1 (≈ 8.39 µM) | – | – | – | – | CCCCO[C@H]1C2CCC1C[C@@H](NC(=O)c1ccn3c(C)cc(C)nc13)C2 [III-185] |
| > 20 | > 60 | – | 0.7 (≈ 2 µM) | – | – | – | Cc1cc(C)n2c(F)cc(C(=O)Nc3ccc(-c4cocn4)cc3)c2n1 [III-271] |
| < 10 | < 30 | 2.4 (≈ 6.57 µM) | – | – | – | – | Cc1cc(C)n2ccc(C(=O)N[C@H]3CC[C@H](Oc4ncccn4)CC3)c2n1 [III-90] |
| 10 to 20 | > 60 | 6.7 (≈ 19.6 µM) | – | – | – | – | Cc1cc(C)n2ccc(C(=O)NC3CCCCC34CCCCO4)c2n1 (centres unmarked) [III-152] |
| < 10 | < 30 | – | 21.3 (≈ 60.8 µM) | – | – | – | CCC(F)(F)CN1CCC(NC(=O)c2ccn3c(C)cc(C)nc23)C1 (centres unmarked) [III-205] |
| < 10 | 30 to 60 | 1.6 (≈ 5.21 µM) | – | – | – | – | Cc1cc(C)n2ccc(C(=O)NC3CCC(F)(F)CC3)c2n1 [III-92] |
| 10 to 20 | > 60 | 4.2 (≈ 12.4 µM) | – | – | – | – | Cc1cc(C)n2ccc(C(=O)NC3CCOc4cc(F)ccc43)c2n1 (centres unmarked) [III-196] |
| – | – | – | – | * (less than 10% Gcase activation) | +++ (Gcase activation greater than 60%) | 10.4 | CCCCCO[C@@H]1CC[C@H](NC(=O)c2ccn3c(C)cc(C)nc23)C1 [III-180] |
| > 20 | > 60 | – | 0.8 (≈ 2.18 µM) | – | – | – | C#CCCCCO[C@H]1CC[C@H](NC(=O)c2ccn3c(C)cc(C)nc23)CC1 [III-208] |
| > 20 | > 60 | – | 0.9 (≈ 2.44 µM) | – | – | – | Cc1cc(C)n2ccc(C(=O)Nc3ccc(C4=NCCO4)cc3Cl)c2n1 [III-219] |
| > 20 | > 60 | 0.01 (≈ 0.0257 µM) | – | – | – | – | Cc1cc(C)n2ccc(C(=O)NC3Cc4ccc(-c5cscn5)cc4C3)c2n1 (centres unmarked) [III-192] |
| < 10 | 30 to 60 | – | 1 (≈ 2.57 µM) | – | – | – | Cc1cc(C)n2ccc(C(=O)NC3CCOc4ccc(-c5ncco5)cc43)c2n1 (centres unmarked) [III-207] |
| < 10 | > 60 | – | 15.8 (≈ 46.5 µM) | – | – | – | C#CCCCOC1CCC(NC(=O)c2ccn3c(C)cc(C)nc23)C1 (centres unmarked) [III-272] |
| > 20 | > 60 | 0.003 (≈ 0.00861 µM) | – | – | – | – | Cc1cc(C)n2ccc(C(=O)Nc3ccc(-c4cccs4)cn3)c2n1 [III-116] |
| > 20 | > 60 | 7 (≈ 20.6 µM) | – | – | – | – | Cc1cc(C)n2ccc(C(=O)NC3CCOc4cccc(F)c43)c2n1 (centres unmarked) [III-195] |
| > 20 | > 60 | 3.3 (≈ 8.79 µM) | – | – | – | – | Cc1cc(C)n2ccc(C(=O)NC3CCC4(CCCO4)c4ccccc43)c2n1 (centres unmarked) [III-143] |
| > 20 | > 60 | 0.06 (≈ 0.181 µM) | – | – | – | – | Cc1cc(C)n2ccc(C(=O)Nc3ccc(-c4ncco4)cc3)c2n1 [III-7] |
| 10 to 20 | > 60 | 1.8 (≈ 4.4 µM) | – | – | – | – | CCCCO[C@H]1CC[C@H](NC(=O)c2ccn3c(COC)cc(C(F)F)nc23)CC1 [III-34] |
| 10 to 20 | > 60 | – | 13.6 (≈ 38.9 µM) | – | – | – | COC1CCC(NC(=O)c2ccn3c(C)cc(C)nc23)c2ccccc21 (centres unmarked) [III-212] |
| > 20 | > 60 | 0.7 (≈ 2.19 µM) | – | – | – | – | Cc1cc(C)n2ccc(C(=O)N[C@@H]3CCCc4ccccc43)c2n1 [III-168] |
